Read-outs that look alike come from different tables or passages of the source.
Columns and labels:
Type in all cases: cell-based
MCF-7 = experiment: MTT cytotoxicity on MCF-7 breast cancer cells
MDA-MB 231 = experiment: MTT cytotoxicity on MDA-MB 231 breast cancer cells; conditions: Homo sapiens, MDA-MB-231, read-out: MDA-MB 231 IC50
Wi-38 = experiment: MTT cytotoxicity on normal fibroblasts; conditions: Homo sapiens, WI-38, read-out: Wi-38 IC50
caspase 3/7 [1] = experiment: Caspase 3/7 activation assay in MCF-7 cells; conditions: for Relative fold activation of caspase 3/7: MCF-7 treated with IC50, mean ± SEM; for activation of caspase 3/7: treated breast cancer cell lines (MCF-7 and MDA-MB 231), IC50s
caspase 3/7 [2] = experiment: Caspase 3/7 activation assay in MDA-MB 231 cells; conditions: MDA-MB 231 treated with IC50, mean ± SEM
BAX [3] = experiment: BAX expression in treated MCF-7 cells; conditions: for Relative fold change in BAX expression: MCF-7, mean ± SEM; for overexpression of apoptosis regulator BAX: tested cancer cell lines, MCF-7 and MDA-MB 231
Bcl-2 [4] = experiment: Bcl-2 expression in treated MDA-MB 231 cells; conditions: MDA-MB 231, mean ± SEM
P53 [5] = experiment: Quantitative detection of P53 expression in treated MDA-MB 231 cells; conditions: MDA-MB 231, vs control, mean ± SEM
BAX [6] = experiment: BAX expression in treated MDA-MB 231 cells; conditions: MDA-MB 231, mean ± SEM
P53 [7] = experiment: Quantitative detection of P53 expression in treated MCF-7 cells; conditions: MCF-7, vs control, mean ± SEM
Bcl-2 [8] = experiment: Bcl-2 expression in treated MCF-7 cells; conditions: for Relative fold change in Bcl-2 expression: MCF-7, mean ± SEM; for diminished levels of Bcl-2: tested cancer cell lines, MCF-7 and MDA-MB 231
[9] = Homo sapiens, MCF7, read-out: MCF-7 IC50, MTT, mean ± SEM
[10] = read-out: MCF-7 IC50, MTT, mean ± SEM

Row | Compound | IC50 (MCF-7; [9]) [nM] | IC50 (MDA-MB 231) [nM] | IC50 (Wi-38) [nM] | Relative fold activation of caspase 3/7 (caspase 3/7 [1]) [fold] | Relative fold activation of caspase 3/7 (caspase 3/7 [2]) [fold] | Relative fold change in BAX expression (BAX [3]) [fold] | Relative fold change in Bcl-2 expression (Bcl-2 [4]) [fold] | Relative fold change in the P53 expression (P53 [5]) [fold] | Relative fold change in the P53 expression (P53 [5]; listed as doxorubicin) [fold] | Relative fold change in BAX expression (BAX [6]) [fold] | Relative fold change in the P53 expression (P53 [7]) [fold] | Relative fold change in the P53 expression (P53 [7]; listed as doxorubicin) [fold] | Relative fold change in Bcl-2 expression (Bcl-2 [8]) [fold] | activation of caspase 3/7 (caspase 3/7 [1]) | overexpression of apoptosis regulator BAX (BAX [3]) | IC50 (MCF-7; [10]) [nM] | diminished levels of Bcl-2 (Bcl-2 [8])
1 | CCOC(=O)c1ccc(NC(=O)C2(OC(=O)c3ccc(N=[N+]=[N-])cc3)CCCCC2)cc1 [Compound 10, 1-((4-(Ethoxycarbonyl)phenyl)carbamoyl)cyclohexyl-4-azidobenzoate] | 439 ± 5 | 470 ± 12 | 505 ± 1 | – | – | – | – | – | – | – | – | – | – | – | – | – | –
2 | NNC(=O)c1ccc(NC(=O)C2(O)CCCCC2)cc1 [Compound 16, N-(4-(Hydrazinecarbonyl)phenyl)-1-hydroxycyclohexane-1-carboxamide] | 968 ± 36 | 1030 ± 36 | 3327 ± 32 | – | – | – | – | – | – | – | – | – | – | – | – | – | –
3 | CCOC(=O)c1ccc(NC(=O)C(c2ccccc2)N(C(=O)c2cc([N+](=O)[O-])cc([N+](=O)[O-])c2)c2ccccc2)cc1 (centres unmarked) [Compound 6, Ethyl-4-(2-(3,5-dinitro-N-phenylbenzamido)-2-phenylacetamido)benzoate] | 143 ± 16 | 370 ± 94 | 538 ± 25 | – | – | – | – | – | – | – | – | – | – | – | – | – | –
4 | COc1cccc2c1C(=O)c1c(O)c3c(c(O)c1C2=O)C[C@@](O)(C(=O)CO)C[C@@H]3O[C@H]1C[C@H](N)[C@H](O)[C@H](C)O1 [Doxorubicin, reference compound] | 478 ± 76 | 2830 ± 173 | 272 ± 53 | 1.881 ± 0.028 | 1.272 ± 0.074 | 1.556 ± 0.054 | 0.798 ± 0.044 | 1.623 ± 0.122 | 1.6 | 1.232 ± 0.019 | 2.148 ± 0.174 | 2.1 | 0.592 ± 0.031 | – | – | – | –
5 | O=C(NNC(=S)Nc1ccccc1)c1ccc(NC(=O)C2(O)CCCCC2)cc1 [Compound 17, 1-Hydroxy-N-(4-(2-(phenylcarbamothioyl)hydrazine-1-carbonyl)phenyl)cyclohexane-1-carboxamide] | ~80 | 518 ± 81 | 1540 ± 122 | 3.677 ± 0.0145 | – | 3.042 ± 0.0365 | – | – | – | – | 4.377 ± 0.144 | – | 0.201 ± 0.0075 | 2.6–4.1 folds | 2.3–3.3 folds | 82 ± 2 | 0.13–0.49 folds
6 | CCOC(=O)c1ccc(NC(=O)C2(OC(=O)c3ccc([N+](=O)[O-])cc3)CCCCC2)cc1 [Compound 11, 1-((4-(Ethoxycarbonyl)phenyl)carbamoyl)cyclohexyl 4-nitrobenzoate] | 591 ± 35 | 756 ± 175 | 516 ± 11 | – | – | – | – | – | – | – | – | – | – | – | – | – | –
7 | O=C(O)OC1(C(=O)Nc2ccc(C(=O)O)cc2)CCCCC1 [Compound 15, 4-(1-(Carboxyoxy)cyclohexane-1-carboxamido)benzoic acid] | 264 ± 159 | 261 ± 25 | 827 ± 4 | – | – | – | – | – | – | – | – | – | – | – | – | – | –
8 | CCOC(=O)c1ccc(NC(=O)C(c2ccccc2)N(C(=O)C(F)(F)F)c2ccccc2)cc1 (centres unmarked) [Compound 2, Ethyl-4-(-phenyl-2-(2,2,2-trifluoro-N-phenylacetamido)acetamido)benzoate] | 369 ± 14 | 472 ± 13 | 147 ± 20 | – | – | – | – | – | – | – | – | – | – | – | – | – | –
9 | CCOC(=O)c1ccc(NC(=O)C(c2ccccc2)N(C(=O)c2ccccc2I)c2ccccc2)cc1 (centres unmarked) [Compound 4, Ethyl-4-(2-(2-iodo-N-phenylbenzamido)-2-phenylacetamido)benzoate] | 96 ± 7 | 188 ± 44 | 418 ± 33 | 3.113 ± 0.1012 | 2.618 ± 0.1615 | 2.747 ± 0.1285 | 0.496 ± 0.005 | 3.309 ± 0.110 | – | 2.338 ± 0.021 | 4.137 ± 0.0407 | – | 0.233 ± 0.0017 | 2.6–4.1 folds | 2.3–3.3 folds | – | 0.13–0.49 folds
10 | CCOC(=O)c1ccc(NC(=O)C2(OC(=O)c3ccc(NS(=O)(=O)c4ccccc4)cc3)CCCCC2)cc1 [Compound 12, 1-((4-(Ethoxycarbonyl)phenyl)carbamoyl)cyclohexyl-4-(phenylsulfonamido)benzoate] | 65 ± 50 | 135 | 633 ± 1 | 4.105 ± 0.0795 | 3.304 ± 0.0745 | 3.337 ± 0.1485 | 0.376 ± 0.037 | 4.312 ± 0.075 | – | 2.683 ± 0.065 | 5.168 ± 0.0676 | – | 0.129 ± 0.0027 | 2.6–4.1 folds | 2.3–3.3 folds | – | 0.13–0.49 folds
11 | CCOC(=O)c1ccc(NC(=O)C(c2ccccc2)N(C(=O)c2ccccc2C)c2ccccc2)cc1 (centres unmarked) [Compound 3, Ethyl-4-(2-(2-methyl-N-phenylbenzamido)-2-phenylacetamido)benzoate] | ~80 | 306 ± 14 | 1330 ± 84 | 3.470 ± 0.0485 | – | 2.448 ± 0.057 | – | – | – | – | 4.110 ± 0.1014 | – | 0.217 ± 0.006 | 2.6–4.1 folds | 2.3–3.3 folds | 86 ± 16 | 0.13–0.49 folds
12 | CCOC(=O)c1ccc(NC(=O)C(c2ccccc2)N(C(=O)c2ccccc2[N+](=O)[O-])c2ccccc2)cc1 (centres unmarked) [Compound 5, Ethyl-4-(2-(2-nitro-N-phenylbenzamido)-2-phenylacetamido)benzoate] | 229 ± 42 | 302 ± 24 | 570 ± 72 | – | – | – | – | – | – | – | – | – | – | – | – | – | –
13 | CCOC(=O)c1ccc(NC(=O)C2(OC(=O)CNS(=O)(=O)c3ccccc3)CCCCC2)cc1 [Compound 13, Ethyl 4-(1-(2-(phenylsulfonamido)acetoxy)cyclohexanecarboxamido)benzoate] | 142 ± 27 | 513 ± 66 | 590 ± 26 | – | – | – | – | – | – | – | – | – | – | – | – | – | –
14 | CCOC(=O)c1ccc(NC(=O)C2(OC(=O)c3ccccc3C)CCCCC2)cc1 [Compound 9, 1-((4-(Ethoxycarbonyl)phenyl)carbamoyl)cyclohexyl-2-methylbenzoate] | 440 ± 6 | 445 ± 4 | 608 ± 12 | – | – | – | – | – | – | – | – | – | – | – | – | – | –
15 | CCOC(=O)c1ccc(N2C(=O)C(c3ccccc3)N(c3ccccc3)C2=O)cc1 (centres unmarked) [Compound 8, Ethyl-4-(2,5-dioxo-3,4-diphenylimidazolidin-1-yl)benzoate] | 78 ± 72 | 146 ± 34 | 953 ± 37 | 3.763 ± 0.011 | 2.945 ± 0.0885 | 3.195 ± 0.082 | 0.454 ± 0.010 | 3.733 ± 0.023 | – | 2.479 ± 0.030 | 4.810 ± 0.1014 | – | 0.163 ± 0.0035 | 2.6–4.1 folds | 2.3–3.3 folds | – | 0.13–0.49 folds
